The test system of data set [1] is spontaneously hypertensive rats (SHR), average blood pressure. In words: Antihypertensive activity in spontaneously hypertensive rats. Format: in vivo, rat (SHR). The conditions noted are these: oral. How it is done: Antihypertensive activity
The compounds to be tested were administered orally to evaluate antihypertensive activity in spontaneously hypertensive rats (hereinafter SHR).
The average blood pressure of male SHR, 20 to 30 weeks old, was measured in a non-anestetised and non restraint state, through a catheter which had been chronically implanted into the abdominal aorta through the right fermoral artery, using an electromanometer. At the same time, the heart rate was measured by a tachometer triggered by the pulse pressure. The compound to be tested was suspended in a 1% tragacanth solution. After the concentration of the suspensions was adjusted in a volume of 5 ml/kg, the compound was administered orally to the SHR. The blood pressure and heart rate were measured 0.5, 1, 3, 6 and 24 hours after the administration.

The nature of data set [2]: Acute toxicity test (mouse, oral administration). The note with it: in vivo, male ICR mice, fasted 18 hours. The protocol: Tests were made using groups each comprising five male ICR strain mice weighing 30 to 35 g and being kept under a fast for 18 hours. The compound to be tested was suspended in a 1% tragacanth solution. After the concentration of the suspensions was adjusted in a volume of 40 ml/kg, the compound was administered orally to the mouse.

Data set [3] has as its system calcium induced contraction of the isolated thoracic aorta in rats. Kind of data set: Calcium antagonistic activity: relaxation of calcium induced contraction of isolated thoracic aorta. It is filed as cell-based, rat (male Wistar strain). The note with it: spiral specimen of rat thoracic aorta, 80 mM potassium, 10 mM Ca++; relaxing activity; read-out: Minimum effective concentration. The protocol: Calcium antagonistic activity
Calcium antagonistic activity of the present compound was investigated by observing the effects on the calcium induced contraction of the isolated thoracic aorta in rats.
A piece of thoracic aorta was isolated from male Wistar strain rats weighing 350-450 g in order to prepare a spiral specimen. This specimen was suspended in a Krebs-Henseleit solution free from calcium. The contraction was evoked by an application of CaCl2 in the presence of 80 mM potassium so as to adjust the solution at a concentration of 10 mM Ca^++. The present compound to be tested was applied to the specimen which had been maximally contracted and was evaluated for its relaxing activity.

For data set [4], the system named is blood flow of the circumflex branch of left coronary artery (dog). Kind of data set: Increasing activity of coronary blood flow in anesthetized dogs. The conditions noted are these: Canis lupus familiaris, 0.1 mg/kg iv, read-out: Increase rate of coronary blood flow. Format: in vivo, dog (mongrel). The protocol:
Increasing activity of coronary blood flow
Male and female mongrel dogs weighing 8 to 17.5 kg were anesthetized with intravenous administration of sodium pentobarbital at a dosage of 30 mg/kg. Under artificial respiration the chest was opened on the left side at the level of the fourth intercostal space and the heart was exposed. The circumflex branch of left coronary artery just below the junction of the anterior descending branch of left coronary artery was isolated in a width of approximately 1 cm, and a flow probe was placed around this artery in order to measure the blood flow of the circumflex branch of left coronary artery by means of an electromagnetic flow meter. During the tests, systemic blood pressure was monitored, and data obtained from tests where the mean blood presure was less than 65 mmHg were excluded from the final data. The pharmaceutical compound to be tested was dissolved in physiological saline or 50% ethanol/50% physiological saline and the thus obtained solution was intravenously administered at a dosage of 1 ml/10 kg through a polyethylene catheter which had been provided within the left femoral vein. The increasing activity of the blood flow of the circumflex branch of left coronary artery was evaluated and expressed in terms of increase rate of the blood flow after the administration of the compound to that of before the administration of the compound.

In the next data set the test system is acetylcolinesterase. The conditions noted are these: Indian J. Pharm., 33, 80 (1971); cited from earlier work.

Structures can show the parent of a compound that is named as a salt.

Here are results for 21 compounds from patent US4668682A, “2-Phenylalkyl-3-aminoalkyl-4(3H)-quinazolinone compound” (Mitsubishi Chemical Industries Limited, priority 1984, dated 1987).

A word on the LD50: it is the dose at which mortality reaches 50%. A lower LD50 goes with greater toxicity. Consider `COc1ccc(Cc2nc3cc(OC)c(OC(C)C)cc3c(=O)n2CCN(C)C)cc1` [Compound 82], for which, in data set [1] (10 mg/kg), the “Increase rate of average blood pressure after administration, after 1 hour” value (shortened to “Increase rate … after 1 hour”) is listed as -24% and the “Increase rate of average blood pressure after administration, after 3 hours” value (“Increase rate … after 3 hours” below) was -15%. This compound registered an LD50 in data set [2] of 750 mg/kg.

Take `CCN(CC)CCn1c(Cc2ccc(OCc3ccccc3)cc2)nc2ccccc2c1=O` [Compound 20]: in data set [3], the minimal effective concentration was 0.3 µM.

`CCN(CC)CCn1c(Cc2cc(OC)ccc2OC)nc2ccc(I)cc2c1=O` [Compound 26]: the minimal effective concentration in data set [3] worked out at 1 µM.

Turning to `CCOc1ccc2nc(Cc3cc(OC)ccc3OC)n(CCN(C)CCc3ccc(OC)c(OC)c3)c(=O)c2c1` [Compound 121], the minimal effective concentration in data set [3] was determined as 0.03 µM.

In the case of `COc1ccc(OC)c(Cc2nc3ccccc3c(=O)n2CCN2CCCC2)c1` [Compound 15], in data set [3], the minimal effective concentration stood at 0.3 µM. For the same compound, the change in vivo at 0.1 mg/kg in data set [4] is 45.3%.

As for `COc1ccc(OC)c(Cc2nc3ccc(OC(C)C)cc3c(=O)n2CCCN(C)C)c1` [Compound 30, 2-(2,5-Dimethoxyphenylmethyl)-3-(3-dimetylaminopropyl)-6-isopropoxy-4(3H)-quinazolinone maleate], the minimal effective concentration in data set [3] came to 0.3 µM.

On to `COc1ccc(Cc2nc3ccc(OC(C)C)cc3c(=O)n2CCN(C)C)cc1` [Compound 50], for which, in data set [1] (10 mg/kg), the “Increase rate … after 1 hour” value is given as -17% and the “Increase rate … after 3 hours” value was -7%. Besides, the minimal effective concentration in data set [3] was found to be 0.3 µM. Moreover, the LD50 in data set [2] came to 700 mg/kg.

For the compound `CCC(C)Oc1ccc2nc(Cc3cc(OC)ccc3OC)n(CCN(C)C)c(=O)c2c1` (stereo not shown) [Compound 63], the minimal effective concentration in data set [3] is 0.3 µM. In data set [2], this compound had an LD50 of 1200 mg/kg. Moreover, the change in vivo at 0.1 mg/kg in data set [4] was determined as 77.3%.

On to `CCCCN(CCCC)CCCn1c(C)nc2ccc(Cl)cc2c1=O` [2-methyl-3-(3-dibutylaminopropyl)-6-chloro-4(3H)-quinazolinone], for which the “inhibitive activity of acetylcolinesterase” value with acetylcolinesterase is on record as “inhibitive activity of acetylcolinesterase”.

Regarding `COc1ccc(OC)c(Cc2nc3ccc(C)cc3c(=O)n2CCN2CCCC2)c1` [Compound 31], the minimal effective concentration in data set [3] was 1 µM. The LD50 in data set [2] came out at 1000 mg/kg. Besides, in data set [4], the change in vivo at 0.1 mg/kg came out at 42.5%.

Turning to `COc1ccc(OC)c(Cc2nc3ccccc3c(=O)n2CCN(C)CCc2ccc(OC)c(OC)c2)c1` [Compound 93], in data set [3], the minimal effective concentration came to 0.03 µM.

Take `COc1ccc(OC)c(Cc2nc3ccc(C)cc3c(=O)n2CCN(C)CCc2ccc(OC)c(OC)c2)c1` [Compound 114]: in data set [3], the minimal effective concentration is 0.1 µM.

In the case of `COc1ccc([C@@H]2Sc3ccccc3N(CCN(C)C)C(=O)[C@@H]2OC(C)=O)cc1` [diltiazem, reference compound], the “Increase rate … after 1 hour” value is given as -8% in data set [1] (30 mg/kg) and -28% in data set [1] (100 mg/kg). Besides, the entries for the “Increase rate … after 3 hours” value in data set [1] (30 mg/kg) and in data set [1] (100 mg/kg) were 0% and -14%, respectively. The minimal effective concentration in data set [3] worked out at 0.3 µM. The compound also had an LD50 in data set [2] of 650 mg/kg. Besides, in data set [4], the change in vivo at 0.1 mg/kg turned out to be 91.2%.

Consider `COc1ccc(OC)c(Cc2nc3ccc(OC(C)C)cc3c(=O)n2CCN(C)CCc2ccc(OC)c(OC)c2)c1` [Compound 102], for which, in data set [1] (10 mg/kg), the “Increase rate … after 1 hour” value is listed as -11% and the “Increase rate … after 3 hours” value is -2%. The minimal effective concentration in data set [3] was determined as 0.03 µM. The compound further showed a median lethal dose (LD50) in data set [2] of 1000 mg/kg. Also, the change in vivo at 0.1 mg/kg in data set [4] turned out to be 53.6%.

For `COc1ccc(OC)c(Cc2nc3ccc(I)cc3c(=O)n2CCN(C)CCc2ccc(OC)c(OC)c2)c1` [Compound 116], in data set [3], the minimal effective concentration came to 0.03 µM.

As for `CCN(CC)CCn1c(Cc2ccccc2OCc2ccccc2)nc2ccccc2c1=O` [Compound 19], the minimal effective concentration in data set [3] turned out to be 0.3 µM.

With `COc1ccc(OC)c(Cc2nc3ccc(OC(C)C)cc3c(=O)n2CCN(C)C)c1` [Compound 47], in data set [1] (10 mg/kg), the “Increase rate … after 1 hour” value is listed as -12% and the “Increase rate … after 3 hours” value was -3%. The minimal effective concentration in data set [3] was determined as 0.1 µM. In data set [2], this compound came in with an LD50 of 750 mg/kg. Besides, the change in vivo at 0.1 mg/kg in data set [4] turned out to be 95.4%.

As for `CCC(C)Oc1ccc2nc(Cc3cc(OC)ccc3OC)n(CCCN(C)C)c(=O)c2c1` (stereo not shown) [Compound 64], the minimal effective concentration in data set [3] came out at 0.3 µM. Besides, the change in vivo at 0.1 mg/kg in data set [4] amounted to 47.6%.

For the compound `CCN(CC)CCn1c(Cc2cc(OC)ccc2OC)nc2ccccc2c1=O` [Compound 13], the minimal effective concentration in data set [3] amounted to 3 µM. In data set [2], this compound gave an LD50 of 700 mg/kg. The change in vivo at 0.1 mg/kg in data set [4] worked out at 32.7%.

Turning to `COc1ccc(OC)c(Cc2nc3ccc(OC(C)C)cc3c(=O)n2CCCN(C)CCc2ccc(OC)c(OC)c2)c1` [Compound 103], in data set [3], the minimal effective concentration was 0.1 µM.

As for `CCN(CC)CCCn1c(Cc2cc(OC)ccc2OC)nc2ccccc2c1=O` [Compound 14], the minimal effective concentration in data set [3] is 1 µM. The change in vivo at 0.1 mg/kg in data set [4] was determined as 42.7%.
